# Experiments:
# Format in all cases: functional
# [1] = species on record: Rattus norvegicus; assay: Compound was evaluated for the inhibition of biosynthesis of prostaglandins at a concentration of 10e4 M
# [2] = test system: Rattus norvegicus; assay: Compound was assessed for ulcerogenicity in rats at a dose of 300 mg/kg
# [3] = test system: Rattus norvegicus; assay: Compound was assessed for ulcerogenicity in rats at a dose of 500 mg/kg
# [4] = species on record: Rattus norvegicus; assay: Compound was evaluated for the inhibition of biosynthesis of prostaglandins at a concentration of 10e3 M
# [5] = species on record: Rattus norvegicus; assay: Compound was evaluated for the inhibition of biosynthesis of prostaglandins at a concentration of 10e5 M
Structure (SMILES),Inhibition [1],Ulcer index [2],Ulcer index [3],Inhibition [4],Inhibition [5]
CN1C(C(=O)Nc2ccccc2-c2nn[nH]n2)=C(O)c2ccccc2S1(=O)=O,0%,0,0,0%,0%
COc1ccc(/C=C/C(=O)Nc2ccccc2C(=O)O)cc1OC [TRANILAST],0%,0,0,0%,0%
